We go through one compound from publication PMC5294914 (Cell host & microbe, 2016).

This assay has as its target FmlH (Escherichia coli, UniProt A0A0H2V7F6). In words: solution binding study.

Each structure is given as a SMILES string.

As usually defined, the Kd is the constant that tells how readily two partners part at equilibrium. Low readings indicate higher affinity, high ones lower affinity. `OC[C@H]1OC(O)[C@H](O)[C@@H](O)[C@H]1O` (stereo partly drawn) [D-Gal] showed an equilibrium dissociation constant (Kd) of 625 µM.
